Reference: patent publication US9732065B2, “Cyclic aminomethyl pyrimidine derivative” (Sumitomo Dainippon Pharma Co., Ltd., priority 2013, dated 2017)

Legend:
[1] = target: T1, human adrenergic α1A receptor (Homo sapiens, UniProt P35348); assay: Agonistic/antagonistic activity in G protein dependent pathway (aequorin intracellular calcium luminescence), α1A; format: cell-based; details: for Maximal activity on each receptor (%): α1A: 10 μM adrenaline = 100%; for inhibition at 0.1 µM / inhibition at 1 µM: against 10 μM endogenous ligand, read-out: Inhibitory activity on each receptor (%): α1A
T1 construct: expressed in transfected cells; host or cells: CHO-K1 or HEK293 cells
T1 sequence (P35348 1-466): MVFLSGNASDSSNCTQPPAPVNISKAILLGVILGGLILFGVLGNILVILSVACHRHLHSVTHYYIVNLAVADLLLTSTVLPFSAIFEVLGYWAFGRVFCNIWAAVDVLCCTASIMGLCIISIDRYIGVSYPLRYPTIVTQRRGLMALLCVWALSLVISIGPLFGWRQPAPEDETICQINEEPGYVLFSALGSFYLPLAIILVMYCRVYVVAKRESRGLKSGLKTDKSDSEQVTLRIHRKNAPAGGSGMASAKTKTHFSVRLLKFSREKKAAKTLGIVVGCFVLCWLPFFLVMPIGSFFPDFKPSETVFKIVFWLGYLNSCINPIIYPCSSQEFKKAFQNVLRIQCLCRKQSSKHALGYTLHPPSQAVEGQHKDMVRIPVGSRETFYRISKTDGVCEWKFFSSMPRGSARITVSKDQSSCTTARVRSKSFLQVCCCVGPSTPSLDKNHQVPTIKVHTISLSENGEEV
Description: (§1) Plasmids encoding each receptor, aequorin and Gα16 were prepared, and the plasmids were transfected into CHO cells (Chinese Hamster Ovary cells) or HEK293 cells (Human Embryonic Kidney 293 cells) to prepare expressing cell lines.
(§2) The agonistic or antagonistic activity of the present compound in the G protein dependent pathway was evaluated on the basis of intracellular calcium levels as follows. CHO-K1 or HEK293 cell lines transfected with D2, D4, α1A, or α2A receptor genes were seeded in a 384-well plate, and incubated in a CO2 incubator at 37° C. for 24 hours, and then a solution of the present compound in DMSO was added into cells preloaded with coelenterazine to measure the change in luminescent signals with a FDSS (Hamamatsu Photonics K.K.). […] The agonistic activity of the present compound was calculated according to the measured luminescent signals, as the maximal activity (Emax) of the present compound. On the other hand, the antagonistic activity of the present compound was calculated according to the luminescent signals in wells with 10 μM of an endogenous ligand alone defined as 100%, as the inhibitory activity of the present compound to an endogenous ligand. EC50 value was calculated as the concentration of the present compound required to achieve a 50% response, and IC50 was calculated as the concentration of the present compound required to achieve a 50% inhibition of the Emax of an endogenous ligand.

[2] = target: T2, Human dopamine D4 receptor (Homo sapiens, UniProt P21917); assay: Agonistic/antagonistic activity in G protein dependent pathway (aequorin intracellular calcium luminescence), D4; format: cell-based; set-up: expressed in transfected cells; host or cells: CHO-K1 or HEK293 cells; details: for inhibition at 0.1 µM / inhibition at 1 µM: against 10 μM endogenous ligand, read-out: Inhibitory activity on each receptor (%): D4; for Emax at 0.1 µM / Emax at 1 µM: read-out: Maximal activity on each receptor (%): D4
T2 sequence (P21917 1-419): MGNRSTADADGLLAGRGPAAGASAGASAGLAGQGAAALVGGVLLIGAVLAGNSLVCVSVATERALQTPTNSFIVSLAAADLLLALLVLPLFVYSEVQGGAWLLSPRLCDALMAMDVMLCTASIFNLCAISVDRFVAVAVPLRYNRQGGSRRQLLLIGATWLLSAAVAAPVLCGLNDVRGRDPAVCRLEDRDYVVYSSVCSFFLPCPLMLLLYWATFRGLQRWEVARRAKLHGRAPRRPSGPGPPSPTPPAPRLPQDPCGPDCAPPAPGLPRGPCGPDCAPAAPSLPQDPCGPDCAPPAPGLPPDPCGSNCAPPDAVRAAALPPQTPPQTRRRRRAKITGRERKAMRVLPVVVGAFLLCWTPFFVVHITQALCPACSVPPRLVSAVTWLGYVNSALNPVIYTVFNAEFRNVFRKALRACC
Description: as §1, §2

[3] = target: T2, Human dopamine D4 receptor; assay: G protein independent pathway: β-arrestin recruit ability (PathHunter β-galactosidase); format: cell-based; set-up: expressed in transfected cells; details: β-arrestin recruitment, 90 minutes; 10 μM dopamine = 100%
Description: The activation of the G protein independent pathway was evaluated on the basis of the recruit ability of β-arrestin as follows. Cell lines transfected with D4 receptor genes were seeded in a 384-well plate, and incubated in a CO2 incubator at 37° C. for 24 hours, a solution of the present compound in DMSO was added into the cells, and then the cells were left at 37° C. for 90 minutes. Buffer containing β-galactosidase reaction substance (PathHunter Cell Assay Buffer, DiscoverRx) was added thereto, and luminescent signals in the wells were measured with a FDSS (Hamamatsu Photonics K.K.). […] The maximal activity (Emax) of the present compound was calculated according to the measured luminescent signals. EC50 value was calculated as the concentration of the present compound required to achieve a 50 response.

[4] = Brain penetration study in rat; format: in vivo; details: brain and plasma, unbound brain-to-plasma drug concentration ratio
Description: In this study, the brain penetration of the present compound can be evaluated. Specifically, a 7-week-old SD-type or WKY-type rat received the subcutaneous administration of a solution of the present compound in saline or the oral administration of a suspension of the present compound in methylcellulose. Plasma and brain were collected from the treated rat 0.5 hour, 1 hour or 2 hours after the administration, and then the levels of the present compound in the plasma and the brain were measured by a LC-MS method.
The protein binding ratios of the present compound to the plasma and the brain were measured by an equilibrium dialysis method.
The levels of the present compound in the plasma and the brain as well as the plasma and brain protein binding ratios are applied to the following formula, and thus Kp,uu,brain (Unbound brain-to-plasma drug concentration ratio) can be calculated. Kp,uu,brain=(level of the present compound in the brain×(100−brain protein binding ratio (%))/100)/(level of the present compound in the plasma×(100−plasma protein binding ratio (%))/100)

[5] = target: T3, Human dopamine D2 receptor (Homo sapiens, UniProt P14416); assay: Agonistic/antagonistic activity in G protein dependent pathway (aequorin intracellular calcium luminescence), D2; format: cell-based; details: for Maximal activity on each receptor (%): D2: 10 μM dopamine = 100%; for inhibition at 0.1 µM / inhibition at 1 µM: against 10 μM endogenous ligand, read-out: Inhibitory activity on each receptor (%): D2
T3 construct: expressed in transfected cells; host or cells: CHO-K1 or HEK293 cells
T3 sequence (P14416 whole entry): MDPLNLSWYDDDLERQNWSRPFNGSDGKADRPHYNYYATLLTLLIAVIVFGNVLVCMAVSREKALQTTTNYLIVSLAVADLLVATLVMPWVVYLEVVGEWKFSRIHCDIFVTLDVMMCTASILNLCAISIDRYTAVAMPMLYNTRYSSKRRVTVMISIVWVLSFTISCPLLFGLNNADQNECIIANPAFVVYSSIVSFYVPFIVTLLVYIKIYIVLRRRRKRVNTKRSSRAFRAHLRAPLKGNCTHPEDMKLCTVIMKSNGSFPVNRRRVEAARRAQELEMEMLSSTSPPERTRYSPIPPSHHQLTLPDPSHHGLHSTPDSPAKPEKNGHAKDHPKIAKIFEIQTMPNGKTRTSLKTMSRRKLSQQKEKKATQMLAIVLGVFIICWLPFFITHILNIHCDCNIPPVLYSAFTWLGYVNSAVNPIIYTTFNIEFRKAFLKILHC
Description: as §1, §2

[6] = PK study in rat (bioavailability); format: in vivo; details: plasma, oral vs intravenous administration
Description: In this study, the pharmacokinetics of the present compound can be evaluated. Specifically, a 7-week-old SD-type or WKY-type rat received the intravenous administration of a solution of the present compound in saline or the oral administration of a suspension of the present compound in carboxymethylcellulose or methylcellulose. Blood was collected from the rat at each time below.
Intravenous administration: 5 minutes, 15 minutes, 30 minutes, 1 hour, 2 hours, 4 hours, 6 hours, and 24 hours after administration
Oral administration: 15 minutes, 30 minutes, 1 hour, 2 hours, 4 hours, 6 hours, and 24 hours after administration
Plasma was collected from the blood, the levels of the present compound in the plasma were measured by a LC-MS method, and then the pharmacokinetic parameters were calculated on the basis of the level changes.

Row | Maximal activity on each receptor (%): α1A ([1]; 0.1 μM) | inhibition at 0.1 µM ([1]; 0.1 μM) | Maximal activity on each receptor (%): α1A ([1]; 1 μM) | inhibition at 1 µM ([1]; 1 μM) | inhibition at 0.1 µM [2] | inhibition at 1 µM [2] | Emax at 0.1 µM [2] | Emax at 1 µM [2] | Maximal activity on D4 receptor (%) [3] | Kp uu [4] | Maximal activity on each receptor (%): D2 ([5]; 0.1 μM) | inhibition at 0.1 µM ([5]; 0.1 μM) | Maximal activity on each receptor (%): D2 ([5]; 1 μM) | inhibition at 1 µM ([5]; 1 μM) | bioavailability [6] | SMILES
1 | 0.4% | -34% | 0.85% | -5.4% | 76% | 98% | 28% | 51% | 21% | 0.44 | 0.29% | -5.3% | 1.7% | 1.2% | 60.1% | Cc1ncc(CN2CCC(c3cncc(F)c3)CC2)cn1 [Example 33, 5-[4-(5-Fluoropyridin-3-yl)piperidin-1-ylmethyl]-2-methylpyrimidine]
2 | 0.31% | -22% | 0.44% | -14% | 64% | 77% | 18% | 40% | 9% | 5.51 | 5.4% | 14% | 18% | 47% | 81.7% | Nc1ncc(CN2CCC(c3cccnc3)CC2)cn1 [Example 37]
3 | 2.1% | 2.1% | −0.1% | -1.7% | 78% | 90% | 59% | 74% | 11% | 1.97 | 0.19% | -1.7% | 1.1% | 9.9% | 16.8% | Cc1ncc(CN2CCC(c3ccccn3)CC2)c(N)n1 [Example 5, 2-Methyl-5-[4-(pyridin-2-yl)piperidin-1-ylmethyl]pyrimidin-4-amine]
